The source of these data is US20100284925A1, “Small Molecule Intervention for Obesity” (priority 2006, published 2010).

The subject of one test is PLTP promoter. The test can be described thus: PLTP-promoter luciferase reporter in HepG2 and transgenic HepG2/PLTPpLuc cells. The following applies: for transactivation of PLTP promoter: luciferase reporter, HepG2 or HepG2/PLTPpLuc cells; for effect on transactivation of PLTP promoter by prieurianin: co-treatment with prieurianin, 200 nM staurosporine or 200 nM TSA. Type of test: cell-based, human. From the text: FIG. 2A. A 1.5 Kb PLTP promoter fused to a luciferase reporter was transactivated by topotecan dose-dependently.
FIG. 2B. Activation of PLTP promoter by topotecan in HepG2 transgenic cells containing the PLTP-promoter luciferase reporter gene fused to the neomycin selectable marker cassette and stably transfected into HepG2 cells to generate the transgenic line (Top panel). Dose-dependent induction of PLTP promoter by topotecan (Bottom panel). Results are the means S.E. of three experiments after normalization with Renilla luciferase.
FIG. 3A. Dose-dependent transactivation of the PLTP promoter by prieurianin in the HepG2 transgenic cells. Results are the means S.E. of three experiments after normalization with Renilla luciferase.
FIG. 3B. […] 1, Control; 2. […] Results are the means±S.E. of triplicate experiments.
FIG. 11. Transactivation of PLTP promoter by cytotoxic and non-cytotoxic drugs. Survey of transactivation of the PLTP promoter by various cytotoxic and non-cytotoxic drugs in the HepG2 transgenic cells was conducted. Results are the means S.E. of three experiments.
FIG. 12. Effects of trichostatin A (TSA) on transactivation of PLTP promoter by prieurianin. Dose response activation of PLTP promoter by prieurianin either in the presence or the absence of 200 nM TSA. Results are the means S.E. of three experiments.
To determine whether non-cytotoxic small molecules could induce PLTP expression, the inventor herein subcloned the PLTP-promoter luciferase reporter into a vector containing a neomycin (G418)-resistance selectable marker and generated a transgenic HepG2 cell line, which harbors the PLTP-promoter luciferase reporter, by stable gene transfection and selection with G418.
The transgenic cells were then screened with a library of small molecules derived from natural products.

The next test deals with NIH-3T3/L1 preadipocytes. The test can be described thus: Differentiation of NIH-3T3/L1 preadipocytes into adipocytes (oil red O or Nile Red staining). It counts as cell-based. Here is the method: FIG. 7. […] NIH-3T3/L1 cells were induced into differentiation and simultaneously treated with 2 μM of prieurianin. Differentiated cells were stained with oil red O—FIG. 7A, undifferentiated control.
Histogram represents A510 nm absorbance of oil red O stain isopropanol extracts from cells. Results are means±S.E. of triplicate experiments.
(§1) FIG. 19. Effects of bufalin on preadipocyte differentiation, and dedifferentiation/delipidation in adipo-cytes. NIH-3T3/L1 cells were induced into differentiation and simultaneously treated with either 1 μM of bufalin or 2 μM of prieurianin. Differentiated cells were stained with Nile Red. Alternatively, preadipocytes were induced into differentiation and five days following differentiation, cells were treated with either 1 μM of bufalin or 2 μM of prieurianin for an additional five days and followed by staining with Nile Red. Stained cells were evaluated by fluorescence microscopy.
To determine the effects of prieurianin on the differentiation of preadipocytes to adipocytes, the NIH-3T3/L1 preadipocytes were treated with or without the drug at the same time when induction of differentiation was initiated.

Test [1] deals with differentiated NIH-3T3/L1 adipocytes. The test can be described thus: Loss of lipid-positive differentiated adipocytes (oil red O, A510; Nile Red). It counts as cell-based. The following applies: 1 μM bufalin, Nile Red. The method, then: FIG. 8. Prieurianin induced loss of differentiated adipocytes. NIH-3T3/L1 preadipocytes were induced into differentiation. Five days following differentiation, cells were treated with various concentrations (0.5, 1, and 2 μM) of prieurianin for an additional five days and followed by staining with oil red O. Micrographs were obtained from representatives of triplicate experiments. Isopropanol extracts of positively stained cells were quantified spectrophotometrically at 510 nm as shown in histogram on the right. Results are means±S.E. of triplicate experiments.
as §1
To assess whether prieurianin has any effect on the differentiated adipocytes, the preadipocytes were allowed to differentiate into adipocytes and then were further cultured for about five days before treating the adipocytes with prieurianin for an additional five to six days, followed by oil red O staining for the presence of lipid accumulating adipocytes.

The test system of the next test is NFκB. Kind of test: NFκB-response element luciferase reporter in L1 preadipocytes. Type of test: cell-based. The following applies: prieurianin 2 μM.
The test system of the next test is C/EBPα. The test can be described thus: C/EBPα response element luciferase reporter in L1 preadipocytes. Conditions: prieurianin 2 μM. Type of test: cell-based. The method, then:
(§2) FIG. 18. Effects of prieurianin on C/EBPα and β and PPARγ mediated transcription in adipogenesis. Response elements corresponding to C/EBPα and β and PPARγ are cloned into the pGL3 basic luciferase reporter plasmid. L1 preadipocytes were contransfected with the reporter plasmid either in the presence or the absence of the corresponding transcription factors cloned into expression vector, followed by treatment with 2 μM of prieurianin. Cells were harvested for luciferase assay 15-24 hrs later. Results are means±S.E. of triplicate experiments.
Background: Reporter assays use an easily measured gene product as a stand-in for the process of interest.

For a further test, the system named is C/EBPβ. The test can be described thus: C/EBPβ response element luciferase reporter in L1 preadipocytes. It counts as cell-based. Conditions: prieurianin 2 μM. Here is the method: as §2
The next test has as its system PPARγ. Kind of test: PPARγ response element luciferase reporter in L1 preadipocytes. The following applies: prieurianin 2 μM. Type of test: cell-based. Here is the method:
as §2

The subject of test [2] is phospholipid transfer protein (PLTP) gene expression. Kind of test: PLTP gene expression in HepG2 cells by DNA microarray and Northern blot. It counts as cell-based, human. Here is the method: The patent or application file contains at least one drawing executed in color. Copies of this patent with color drawings will be provided by the United States Patent and Trademark Office upon request and payment of necessary fee. FIG. 1. Pharmacological response of HepG2 cells to topotecan by DNA Microarray. HepG2 cells were treated with 500 nM for various times (A) or with various concentrations of topotecan (B) for 24 hrs. Dendrogram of the expression changes of the phospholipid transfer protein (PLTP) is shown. (C) Induction of PLTP expression by topotecan was confirmed independently by Northern blot analysis.
The mechanisms of resistance to topoisomerase (Top) 1 inhibitors by expression genomics were studied by conducting time-course and dose-response experiments by DNA microarray to investigate the pharmacological response of the human hepatocellular blastoma HepG2 cells to topotecan, which were either treated with 500 nM of topotecan (a cytotoxic anticancer agent) for various times (0, 1, 3, 5, 10, 15, and 24 hrs), or with various doses of topotecan (0, 10, 50, 100, 300, 500, and 1000 nM) for 24 hrs.
Activation of PLTP expression by topotecan was temporally regulated and dose dependent, with a late onset, peaking at 24 hrs with an approximately 20-fold induction.

In test [3] the test system is PLTP. The test can be described thus: Serum PLTP protein by Western blot in normal C57BL/6J mice. The following applies: normal C57BL/6J mice, 0, 2, 5 and 10 mg/kg. Type of test: in vivo. Here is the method: (§3) FIG. 10. Release of adiponectin and PLTP by preadipocytes and adipocytes, and in serum of normal mice. Preadipocytes (B and D) were treated with 2 μM of prieurianin and media collected after 36 hrs for Western blot analysis of either adiponectin (A and B) or PLTP (C and D). Alternatively, five days following differentiation, conditioned media of adipocyets (A and C) were collected for Western analysis. E. Serum of normal C57BL/6J mice given prieurianin or topotecan (0, 2, 5, and 10 mg/kg) was analyzed by Western blot for PLTP.

A further test relates to adiponectin. Kind of test: Adiponectin release into conditioned media (Western blot). The following applies: NIH-3T3/L1 preadipocytes, approximately 36 hrs after treatment. It counts as cell-based. Here is the method: as §3
Adipose tissue contains various types of cells including preadipocytes and adipocytes. Also, preadipocytes secrete factors involved in their own differentiation. Once differentiated, the mature adipocytes acquire the ability to communicate distally with other organs including brain, liver, and skeletal muscle and locally with other cells such as preadipocytes, endothelial cells and monocytes/macrophages by secreting leptin and adiponectin. In addition, anti-adipogenic cytokines prevent the release of adiponectin by preadipocytes. Thus, the production of adiponectin and PLTP by preadipocytes and adipocytes was assessed.
Background: A western blot detects proteins with antibodies after separation by electrophoresis.

In test [4] the test system is PLTP. Kind of test: PLTP release into conditioned media (Western blot). Type of test: cell-based. The method, then:
as §3
The expression and secretion of PLTP by preadipocytes and adipocytes was also assessed. Thus, preadipocytes produced and released both the low and the high molecular weight forms of PLTP, while adipocytes secreted only the low molecular weight form (see FIGS. 10C and 10D) into the conditioned media.

Entries after “also recorded” stand apart in the source; their conditions may differ.

Consider `CCCCCCCCCCCCCC(=O)O[C@@H]1[C@@H](C)[C@@]2(O)[C@@H](C=C(CO)C[C@]3(O)C(=O)C(C)=C[C@@H]23)[C@@H]2C(C)(C)[C@]12OC(C)=O` [TPA, 12-O-tetradecanoylphorbol-13-acetate], for which the “transactivation of PLTP promoter” value in the test on PLTP promoter was “induced PLTP promoter”.
For the molecule `C[C@]12CC[C@H](O)C[C@H]1CC[C@@H]1[C@@H]2CC[C@]2(C)[C@@H](c3ccc(=O)oc3)CC[C@]12O` [bufalin, reference compound], the “transactivation of PLTP promoter” value in the test with PLTP promoter is listed as “stimulates the PLTP promoter like prieurianin”. In addition, the differentiation of preadipocytes entry in the test on NIH-3T3/L1 preadipocytes (1 μM bufalin, Nile Red) is given as “did not, however, inhibit the differentiation of preadipocytes”. In addition, the “de-differentiation or delipidation in adipocytes” value in test [1] was “neither causes de-differentiation or delipidation in adipocytes”. Moreover, the “NFκB-response element mediated transcription” value in the test with NFκB was “nor did it modulate the transcriptional activity”. In addition, the “transactivation potential of C/EBPα” value in the test with C/EBPα is listed as “nor did it modulate the transcriptional activity”. Moreover, the “transactivation potential of C/EBPβ” value in the test with C/EBPβ is recorded as “nor did it modulate the transcriptional activity”. Also, in the test on PPARγ, the “transactivation potential of PPARγ” value is reported as “nor did it modulate the transcriptional activity”.
With `CN[C@@H]1C[C@H]2O[C@@](C)([C@@H]1OC)n1c3ccccc3c3c4c(c5c6ccccc6n2c5c31)C(=O)NC4` [staurosporine], the “effect on TPA activation of PLTP promoter” value in the test with PLTP promoter (co-treatment with TPA) is on record as “abolished”. In the test on PLTP promoter, the “effect on transactivation of PLTP promoter by prieurianin” value was “strongly inhibited PLTP transactivation by prieurianin; also recorded: inhibited”. Further, the “differentiation, staurosporine alone” value with NIH-3T3/L1 preadipocytes (data not shown) is “no observable effects on differentiation”.
In the case of `CC[C@@]1(O)C(=O)OCc2c1cc1n(c2=O)Cc2cc3c(CN(C)C)c(O)ccc3nc2-1` [topotecan, reference compound], the “PLTP expression by Northern blot analysis” value in test [2] (HepG2 cells) is “induced by topotecan dose-dependently”. For the same molecule, the “induction of PLTP expression” value in [2] (HepG2 cells, DNA microarray, peaking at 24 hrs) is given as “approximately 20 fold”. In test [2] (time-course microarray analysis), the “onset of PLTP induction following treatment” value was 12 to 15 h. In addition, the “transactivation of PLTP promoter” value in the test on PLTP promoter is recorded as “transactivated by topotecan dose dependently”. Further, the “serum PLTP protein levels” value with PLTP [3] is recorded as “a rise in the serum PLTP protein levels”. The “adiponectin release by preadipocytes” value in the test on adiponectin is “significantly inhibited the production of adiponectin”. The “release of PLTP by adipocytes” value in the test on PLTP [4] (adipocytes) is “induced an increase in the release of only the low molecular weight form of PLTP”. In addition, in the test with PLTP [4] (preadipocytes), the “release of PLTP by preadipocytes” value is reported as “release of the low but not the high molecular form of PLTP was reduced”.
For the molecule `CC(/C=C/C(=O)NO)=C\[C@@H](C)C(=O)c1ccc(N(C)C)cc1` [trichostatin A], the “effect on transactivation of PLTP promoter by prieurianin” value with PLTP promoter is reported as “though modest, potentiated the transactivation of PLTP promoter activity by prieurianin”.
